Measured values: ChEMBL document CHEMBL4014300, “Synthesis and biological evaluation of novel quinazoline-sulfonamides as anti-cancer agents” (Bioorg Med Chem Lett, 2017)
In brackets after ≈: the same amount, converted by molar mass. Activity calls are given as the source filed them. No cut-off for these calls is given here.

Tests used:
COLO 205 [1] = experiment: Cytotoxicity against human COLO205 cells assessed as reduction in cell viability after 24 hrs by MTT assay; type: functional, cell-based; details: COLO 205, 24 h
THP-1 [2] = experiment: Cytotoxicity against human THP1 cells assessed as reduction in cell viability after 24 hrs by MTT assay; type: functional, cell-based; details: THP-1, 24 h
FHC [3] = experiment: Cytotoxicity against human FHC cells assessed as reduction in cell viability at 100 ug/ml after 24 hrs by MTT assay; type: cell-based
SK-OV-3 [4] = experiment: Cytotoxicity against human SKOV3 cells assessed as reduction in cell viability at 100 ug/ml after 24 hrs by MTT assay; type: functional, cell-based
U-937 [5] = experiment: Cytotoxicity against human U937 cells assessed as reduction in cell viability after 24 hrs by MTT assay; type: functional, cell-based; details: U-937, 24 h
DU-145 [6] = experiment: Cytotoxicity against human DU145 cells assessed as reduction in cell viability after 24 hrs by MTT assay; type: functional, cell-based; details: DU-145, 24 h
SK-OV-3 [7] = experiment: Cytotoxicity against human SKOV3 cells assessed as reduction in cell viability after 24 hrs by MTT assay; type: functional, cell-based; details: SK-OV-3, 24 h
FHC [8] = experiment: Cytotoxicity against human FHC cells assessed as reduction in cell viability after 24 hrs by MTT assay; type: cell-based
DU-145 [9] = experiment: Cytotoxicity against human DU145 cells assessed as reduction in cell viability at 100 ug/ml after 24 hrs by MTT assay; type: functional, cell-based
COLO 205 [10] = experiment: Cytotoxicity against human COLO205 cells assessed as reduction in cell viability at 100 ug/ml after 24 hrs by MTT assay; type: functional, cell-based
THP-1 [11] = experiment: Cytotoxicity against human THP1 cells assessed as reduction in cell viability at 100 ug/ml after 24 hrs by MTT assay; type: functional, cell-based
U-937 [12] = experiment: Cytotoxicity against human U937 cells assessed as reduction in cell viability at 100 ug/ml after 24 hrs by MTT assay; type: functional, cell-based

SMILES | IC50 (COLO 205 [1]) | IC50 (THP-1 [2]) | Activity (FHC [3]) | Activity (SK-OV-3 [4]) | IC50 (U-937 [5]) | IC50 (DU-145 [6]) | IC50 (SK-OV-3 [7]) | IC50 (FHC [8]) | Activity (DU-145 [9]) | Activity (COLO 205 [10]) | Activity (THP-1 [11]) | Activity (U-937 [12])
COc1cc2nc(Cl)nc(NS(=O)(=O)c3ccc(C)cc3)c2cc1OC | 91.3 mg/L (≈ 232 µM) | 33.5 mg/L (≈ 85.2 µM) | Non-Toxic | inactive | 39.9 mg/L (≈ 101 µM) | 44.2 mg/L (≈ 112 µM) |  |  |  |  |  | 
COc1cc2nc(Cl)nc(NS(=O)(=O)c3cccc(C(F)(F)F)c3)c2cc1OC | 99 mg/L (≈ 221 µM) | 36.4 mg/L (≈ 81.3 µM) | Non-Toxic |  | 59 mg/L (≈ 132 µM) | 23.1 mg/L (≈ 51.5 µM) | 32.3 mg/L (≈ 72.1 µM) |  |  |  |  | 
COc1cc([C@@H]2c3cc4c(cc3[C@@H](O[C@@H]3O[C@@H]5CO[C@@H](C)O[C@H]5[C@H](O)[C@H]3O)[C@H]3COC(=O)[C@H]23)OCO4)cc(OC)c1O [ETOPOSIDE] | 5.12 mg/L (≈ 8.7 µM) | 4.42 mg/L (≈ 7.51 µM) |  |  | 2.89 mg/L (≈ 4.91 µM) | 6.17 mg/L (≈ 10.5 µM) | 3.84 mg/L (≈ 6.52 µM) | 49.3 mg/L (≈ 83.8 µM) |  |  |  | 
COc1cc2nc(Cl)nc(NS(=O)(=O)Cc3cccc(I)c3)c2cc1OC |  | 96.2 mg/L (≈ 185 µM) | Non-Toxic | inactive | 66.5 mg/L (≈ 128 µM) |  |  |  | inactive | inactive |  | 
COc1ccc(S(=O)(=O)Nc2nc(Cl)nc3cc(OC)c(OC)cc23)cc1 |  |  | Non-Toxic | inactive |  |  |  |  | inactive | inactive | inactive | inactive
COc1cc2nc(Cl)nc(NS(C)(=O)=O)c2cc1OC |  | 99.7 mg/L (≈ 314 µM) |  |  |  |  | 88 mg/L (≈ 277 µM) | 88.1 mg/L (≈ 277 µM) | inactive | inactive |  | inactive
COc1cc2nc(N3CCOCC3)nc(NS(=O)(=O)C3CC3)c2cc1OC | 49.1 mg/L (≈ 124 µM) | 13.8 mg/L (≈ 34.9 µM) |  |  | 8.09 mg/L (≈ 20.5 µM) | 25.1 mg/L (≈ 63.5 µM) | 32.1 mg/L (≈ 81.5 µM) | 73.2 mg/L (≈ 186 µM) |  |  |  | 
COc1cc2nc(N3CCOCC3)nc(NS(=O)(=O)c3cccc4c3OCO4)c2cc1OC |  | 71.6 mg/L (≈ 151 µM) | Non-Toxic | inactive |  |  |  |  | inactive | inactive |  | inactive
COc1cc2nc(Cl)nc(NS(=O)(=O)c3cccs3)c2cc1OC | 27.5 mg/L (≈ 71.3 µM) | 11.2 mg/L (≈ 29.1 µM) |  |  | 10.1 mg/L (≈ 26.1 µM) | 16.4 mg/L (≈ 42.6 µM) | 19.1 mg/L (≈ 49.4 µM) | 98.7 mg/L (≈ 256 µM) |  |  |  | 
COc1cc2nc(Cl)nc(NS(=O)(=O)Cc3ccccc3)c2cc1OC |  |  | Non-Toxic | inactive | 91.7 mg/L (≈ 233 µM) |  |  |  | inactive | inactive | inactive | 
COc1cc2nc(N3CCCC3)nc(NS(=O)(=O)c3cccs3)c2cc1OC |  |  | Non-Toxic | inactive |  |  |  |  | inactive | inactive | inactive | inactive
COc1cc2nc(N3CCCC3)nc(NS(=O)(=O)c3cccc(C(F)(F)F)c3)c2cc1OC | 78 mg/L (≈ 162 µM) | 15.9 mg/L (≈ 32.9 µM) | Non-Toxic |  | 16 mg/L (≈ 33.2 µM) | 65.1 mg/L (≈ 135 µM) | 22.1 mg/L (≈ 45.9 µM) |  |  |  |  | 
COc1cc2nc(N3CCOCC3)nc(NS(=O)(=O)c3cccc(C(F)(F)F)c3)c2cc1OC | 61.8 mg/L (≈ 124 µM) | 38.8 mg/L (≈ 77.9 µM) | Non-Toxic |  | 28.7 mg/L (≈ 57.6 µM) | 45.8 mg/L (≈ 91.8 µM) | 50.5 mg/L (≈ 101 µM) |  |  |  |  | 
COc1cc2nc(Cl)nc(NS(=O)(=O)c3cccc4ccccc34)c2cc1OC |  | 82.4 mg/L (≈ 192 µM) | Non-Toxic |  | 35.3 mg/L (≈ 82 µM) | 63.6 mg/L (≈ 148 µM) | 95.3 mg/L (≈ 222 µM) |  |  | inactive |  | 
COc1cc2nc(N3CCCC3)nc(NS(=O)(=O)C3CC3)c2cc1OC | 10.2 mg/L (≈ 26.8 µM) | 9.13 mg/L (≈ 24.1 µM) |  |  | 6.43 mg/L (≈ 17 µM) | 11.1 mg/L (≈ 29.3 µM) | 17.6 mg/L (≈ 46.4 µM) | 66.6 mg/L (≈ 176 µM) |  |  |  | 
COc1cc2nc(Cl)nc(NS(=O)(=O)c3ccc(C)cc3C)c2cc1OC | 49 mg/L (≈ 120 µM) | 40.4 mg/L (≈ 99.1 µM) |  |  | 65.1 mg/L (≈ 160 µM) | 47.8 mg/L (≈ 117 µM) | 25.8 mg/L (≈ 63.2 µM) | 73.1 mg/L (≈ 179 µM) |  |  |  | 
COc1cc2nc(N3CCCC3)nc(NS(=O)(=O)c3ccc(C)cc3)c2cc1OC | 24.1 mg/L (≈ 56.3 µM) | 7.06 mg/L (≈ 16.5 µM) |  |  | 8.61 mg/L (≈ 20.1 µM) | 14.1 mg/L (≈ 33 µM) | 20 mg/L (≈ 46.7 µM) | 48.1 mg/L (≈ 112 µM) |  |  |  | 
COc1cc2nc(Cl)nc(NS(=O)(=O)c3cccc4c3OCO4)c2cc1OC |  | 48.6 mg/L (≈ 115 µM) | Non-Toxic |  | 89.6 mg/L (≈ 211 µM) |  | 78.1 mg/L (≈ 184 µM) |  | inactive | inactive |  | 
COc1cc2nc(N3CCOCC3)nc(NS(=O)(=O)c3ccc(C)cc3)c2cc1OC | 44.2 mg/L (≈ 99.4 µM) | 92.5 mg/L (≈ 208 µM) | Non-Toxic | inactive |  | 51.3 mg/L (≈ 115 µM) |  |  |  |  |  | inactive
COc1ccc(S(=O)(=O)Nc2nc(Cl)nc3cc(OC)c(OC)cc23)cc1C | 57 mg/L (≈ 134 µM) | 79 mg/L (≈ 186 µM) | Non-Toxic |  | 41.1 mg/L (≈ 96.9 µM) | 39.5 mg/L (≈ 93.1 µM) | 68.1 mg/L (≈ 161 µM) |  |  |  |  | 
COc1cc2nc(Cl)nc(NS(=O)(=O)C3CC3)c2cc1OC |  |  | Non-Toxic | inactive |  |  |  |  | inactive | inactive | inactive | inactive
COc1cc2nc(Cl)nc(NS(=O)(=O)c3ccccc3)c2cc1OC | 19 mg/L (≈ 50.1 µM) | 8.17 mg/L (≈ 21.5 µM) |  |  | 6.06 mg/L (≈ 16 µM) | 12.3 mg/L (≈ 32.5 µM) | 9.23 mg/L (≈ 24.3 µM) | 73 mg/L (≈ 192 µM) |  |  |  | 
